From US9573954B2, “Pyrazolopyrimidine compounds” (University Health Network, priority 2012, dated 2017)
Like-named read-outs stand apart in the source and are kept apart here.

Columns and labels:
[1] = test system: ovarian cancer cells (OVCAR-3); test: Cancer cell line growth inhibition, Sulforhodamine B assay, OVCAR-3; assay type: cell-based; conditions: Homo sapiens, OVCAR-3, OVCAR-3 ovarian cancer cell line; read-out: Cancer Cell Line GI50 Range OVCAR-3
Outline: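 OVCAR-3 cells were seeded 24 h before compound addition, then exposed for 5 days to final concentrations of 10 nM to 50 μM in DMEM with 10% FBS. Growth was measured by TCA fixation and sulforhodamine B staining with absorbance at 570 nm. Inhibition was relative to DMSO-only cells, and GI50 came from curve fitting.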

[2] = test system: Ovarian 2393A tumor initiating cells; test: Tumor-initiating cell growth inhibition, Alamar Blue assay, ovarian TICs; assay type: cell-based; conditions: 144 h; Ovarian 2393A TICs, 6 days; read-out: Tumor Initiating Cell GI50 Range Ovarian 2393A
Description: (§1) Non-tissue or tissue cultured treated T-75 flask and 96-well plates were purchased from VWR. Vitamin B-27 supplement, MEM NEAA (minimum essential medium non essential amino acids), sodium pyruvate, L-glutamine, N2 supplement, penicillin-streptomycin and fungizone/amphotericin B were obtained from Invitrogen. Lipid mixture, heparin and EGF were purchased from Sigma; bFGF from BD Biosciences. Tumor Initiating Cells (TICs) from colon were routinely maintained using non-tissue cultured treated T-75 flasks in DMEM:F12 medium containing 0.2XB-27 supplement, 4 ug/ml heparin, 1×MEM NEAA, 1×sodium pyruvate, 1 mM glutamine, 10 pg/ul bFGF, 20 pg/ul EGF, 1× N2 supplement, lipid mixture, penicillin-streptomycin and fungizone/amphotericin B. Ovarian TICs were routinely maintained using tissue cultured treated T-75 flasks in DMEM:F12 medium containing IXB-27 supplement, 4 ug/ml heparin, 20 pg/ul bFGF, 20 pg/ul EGF and penicillin-streptomycin.
(§2) Compounds described herein were dissolved in DMSO and further diluted in cell culture medium for GI50 determination. Colon TICs were trypsinized and seeded into non-tissue cultured treated 96-well plates with 4,000 cells/well. After 24 h, compound was added into the cell culture at different concentrations, and the final concentration of DMSO was adjusted to 0.1%. Cells were then cultured at 37° C. for 9 days. Ovarian TICs were trypsinized and seeded into tissue cultured treated 96-well plates with 1,000 cells/well. After 24 h, compound was added into the cell culture at different concentrations, and the final concentration of DMSO was adjusted to 0.1%. Cells were then cultured at 37° C. for 6 days. Cell viability was assessed by Alamar Blue assay: 10 ul of Alamar Blue was added into each well. After 4 hours incubation at 37° C., fluorescence was recorded at excitation 544 and emission 590. GI50 (Growth inhibition) was calculated using GraphPad Prism 4.0 software.
(§3) In Table 1 below, GI50 value ranges for compound examples against TICs (Colon 12 and Ovarian 2393A) are given.

human TTK = molecular target: T1, human TTK (Homo sapiens, UniProt P33981); test: TTK inhibition assay (indirect ELISA); assay type: biochemical
T1 construct: Active TTK was purchased from Invitrogen as an amino terminal GST fusion of full length human TTK; purchased Invitrogen
T1 sequence (P33981 1-857): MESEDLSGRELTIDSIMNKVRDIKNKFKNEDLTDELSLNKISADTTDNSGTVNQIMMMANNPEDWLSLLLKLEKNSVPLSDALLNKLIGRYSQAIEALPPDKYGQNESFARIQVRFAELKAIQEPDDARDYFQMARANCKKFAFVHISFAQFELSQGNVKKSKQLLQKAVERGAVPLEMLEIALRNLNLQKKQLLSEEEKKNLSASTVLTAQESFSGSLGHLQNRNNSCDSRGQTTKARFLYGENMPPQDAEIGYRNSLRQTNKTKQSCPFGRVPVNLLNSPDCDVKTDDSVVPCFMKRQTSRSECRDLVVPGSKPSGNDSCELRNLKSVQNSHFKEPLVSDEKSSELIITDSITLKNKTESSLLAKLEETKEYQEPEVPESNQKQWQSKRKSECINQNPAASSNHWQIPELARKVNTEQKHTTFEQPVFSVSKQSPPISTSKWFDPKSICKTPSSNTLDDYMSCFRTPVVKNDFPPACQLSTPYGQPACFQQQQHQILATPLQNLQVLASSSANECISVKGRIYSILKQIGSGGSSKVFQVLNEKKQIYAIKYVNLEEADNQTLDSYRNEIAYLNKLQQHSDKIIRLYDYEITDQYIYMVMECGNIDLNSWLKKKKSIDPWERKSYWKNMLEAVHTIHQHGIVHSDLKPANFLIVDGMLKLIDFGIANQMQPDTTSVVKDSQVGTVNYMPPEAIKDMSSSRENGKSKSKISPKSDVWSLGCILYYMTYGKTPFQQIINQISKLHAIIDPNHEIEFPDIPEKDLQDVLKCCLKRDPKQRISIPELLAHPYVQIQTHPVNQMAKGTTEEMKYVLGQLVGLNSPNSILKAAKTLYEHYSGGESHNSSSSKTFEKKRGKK
Outline: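 Activity detected by indirect ELISA after compounds sat with full-length GST-TTK for 5 min prior to starting the reaction with ATP. IC50 came from a four-parameter logistic curve of % inhibition, calculated against background and uninhibited control wells.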

[3] = test system: colon cancer cells (HCT116); test: Cancer cell line growth inhibition, Sulforhodamine B assay, HCT116; assay type: cell-based; conditions: Homo sapiens, HCT-116, HCT116 colon cancer cell line; read-out: Cancer Cell Line GI50 Range HCT116
Outline: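 HCT116 cells, 1000–4000 per well, seeded 24 h ahead, then treated 5 days with compound at 10 nM to 50 μM final in DMEM with 10% FBS. Growth measured by sulforhodamine B staining after TCA fixation, A570; GI50 from inhibition relative to DMSO-only cells.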

[4] = test system: Colon 12 tumor initiating cells; test: Tumor-initiating cell growth inhibition, Alamar Blue assay, colon TICs; assay type: cell-based; conditions: 216 h; Colon 12 TICs, 9 days; read-out: Tumor Initiating Cell GI50 Range Colon 12
Description: as §1, §2, §3

[5] = test system: breast cancer cells (MDA-MB-468); test: Cancer cell line growth inhibition, Sulforhodamine B assay, MDA-MB-468; assay type: cell-based; conditions: Homo sapiens, MDA-MB-468, MDA-MB-468 breast cancer cell line; read-out: Cancer Cell Line GI50 Range MDA-MB-468
Outline: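 MDA-MB-468 cells exposed 5 days to compound at final 10 nM to 50 μM in DMEM with 10% FBS. Growth measured by sulforhodamine B protein staining after TCA fixation, absorbance 570 nm; inhibition relative to DMSO-only cells, GI50 determined for cytotoxic compounds.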

[6] = 100 μM ATP, read-out: TTK IC50 Range
[7] = 16 μM ATP (Sigma cat# A7699), read-out: TTK IC50 Range (denoted with an asterisk)

SMILES	GI50 [1] [µM]	GI50 [2] [µM]	IC50 (human TTK; [6]) [µM]	GI50 [3] [µM]	GI50 [4] [µM]	GI50 [5] [µM]	IC50 (human TTK; [7]) [µM]
Cc1cc(-c2cnn3c(NCC4CCOCC4)cc(N[C@H]4CCN(C5COC5)C4)nc23)ccc1C(=O)NC1CC1 [Example C120]	> 0.5	> 0.5	< 0.1	0.1 to 0.5	> 0.5	0.1 to 0.5	
Cc1cc(-c2cnn3c(NCC4CCOCC4)cc(N[C@H](CO)C(C)C)nc23)ccc1C(=O)NC1CC1 [Example C38, (S)-N-cyclopropyl-4-(5-((1-hydroxy-3-methylbutan-2-yl)amino)-7-(((tetrahydro-2H-pyran-4-yl)methyl)amino)pyrazolo[1,5-a]pyrimidin-3-yl)-2-methylbenzamide]	≤ 0.1	≤ 0.1	< 0.1	≤ 0.1	≤ 0.1	≤ 0.1	
Cc1cc(-c2cnn3c(NC[C@H]4CC[C@@H](O)CC4)nc(Oc4cccc(F)c4)nc23)ccc1C(=O)NC1CC1 [Example C24]	≤ 0.1	≤ 0.1		≤ 0.1	≤ 0.1	≤ 0.1	< 0.1
Cc1cc(-c2cnn3c(NCC4(F)CCN(C)CC4)cc(Oc4cccc(F)c4)nc23)ccc1C(=O)NC1CC1 [Example C28]	≤ 0.1	≤ 0.1	< 0.1	≤ 0.1	≤ 0.1	≤ 0.1	
Cc1cc(-c2cnn3c(NCC4CCOCC4)cc(-c4ccncc4)nc23)ccc1C(=O)NC1CC1 [Example C150]	0.1 to 0.5	0.1 to 0.5	< 0.1	0.1 to 0.5	0.1 to 0.5	0.1 to 0.5	
Cc1cc(-c2cnn3c(NCC4CCOCC4)nc(Nc4ccccc4)nc23)ccc1C(=O)NC1CC1 [Example C10]	> 0.5	> 0.5		> 0.5	> 0.5	> 0.5	< 0.1
Cc1cc(-c2cnn3c(NCC4CCOCC4)cc(N[C@@H](C(C)C)C(C)(C)O)nc23)ccc1C(=O)NC1CC1 [Example C40, (S)-N-cyclopropyl-4-(5-((2-hydroxy-2,4-dimethylpentan-3-yl)amino)-7-(((tetrahydro-2H-pyran-4-yl)methyl)amino)pyrazolo[1,5-a]pyrimidin-3-yl)-2-methylbenzamide]	0.1 to 0.5	0.1 to 0.5	< 0.1	≤ 0.1	≤ 0.1	≤ 0.1	
Cc1cc(-c2cnn3c(NCC4COC4)cc(N[C@H]4CCCC[C@H]4O)nc23)ccc1C(=O)NC1CC1 [Example C37, N-cyclopropyl-4-(5-(((1S,2R)-2-hydroxycyclohexyl)amino)-7-((oxetan-3-ylmethyl)amino)pyrazolo[1,5-a]pyrimidin-3-yl)-2-methylbenzamide]	≤ 0.1	≤ 0.1	< 0.1	≤ 0.1	≤ 0.1	≤ 0.1	
Cc1cc(-c2cnn3c(NCCN(C)C)cc(Oc4cccc(F)c4)nc23)ccc1C(=O)NC1CC1 [Example C187]	0.1 to 0.5	≤ 0.1	< 0.1	≤ 0.1	≤ 0.1	≤ 0.1	
Cc1cc(-c2cnn3c(NCC4CCOCC4)cc(N[C@@H](C4CC4)C(C)(C)O)nc23)ccc1C(=O)NC1CC1 [Example C41, (S)-N-cyclopropyl-4-(5-((1-cyclopropyl-2-hydroxy-2-methylpropyl)amino)-7-(((tetrahydro-2H-pyran-4-yl)methyl)amino)pyrazolo[1,5-a]pyrimidin-3-yl)-2-methylbenzamide]	≤ 0.1	0.1 to 0.5	< 0.1	≤ 0.1	≤ 0.1	≤ 0.1	
Cc1cc(-c2cnn3c(NCC4(F)CCNCC4)cc(Oc4cccc(F)c4)nc23)ccc1C(=O)NC1CC1 [Example C146]	0.1 to 0.5	≤ 0.1	< 0.1	≤ 0.1	≤ 0.1	≤ 0.1	
